From patent publication US6653296B1, “Antiretroviral enantiomeric nucleotide analogs” (Institute of Organic Chemistry and Biochemistry of the …, priority 1992, dated 2003) come the findings set out here.

Each structure is given as a SMILES string. In brackets after ≈: the same amount, converted by molar mass.

Series [1] has as its system HIV-1. Nature of the series: HIV-1 induced cytopathicity in MT-4 cells. The format is cell-based, human immunodeficiency virus type 1. The note with it: concentration required to inhibit HIV-induced cytopathicity in MT-4 cells by 50%; 5 days. The method, then:
(§1) The activity of the compounds against HIV-1 and HIV-2 induced cytopathicity was examined in human lymphocyte MT-4 cells. […] The infected cell cultures were then incubated at 37° C. for 5 days in a humidified CO2-controlled incubator. Then, the cytopathicity of the virus was examined by determination of MT-4 cell viability by trypan blue dye staining.
A general note: Protection from cytopathic effect is a common read-out in antiviral testing.

For series [2], the system named is HIV-2. Nature of the series: HIV-2 induced cytopathicity in MT-4 cells. The format is cell-based, human immunodeficiency virus type 2. The note with it: concentration required to inhibit HIV-induced cytopathicity in MT-4 cells by 50%; 5 days. The method, then: as §1
The subject of series [3] is Moloney murine sarcoma virus (MSV). Kind of series: MSV-induced transformation of C3H/3T3 cells. The format is cell-based. The note with it: concentration required to inhibit MSV-induced C3H/3T3 cell transformation by 50%; day 6. On the procedure: The cells were seeded in 1-ml-wells of a 48-well microtiter plate and exposed to 80 PFU (plaque forming units) for 60-90 minutes. Then, the virus was removed and culture medium containing appropriate concentrations of the test compounds were added (1 ml per well). At day 6 post infection, MSV-induced transformation of the cell culture was examined microscopically.

Series [4] concerns C3H/3T3 cells. Nature of the series: Microscopic alteration of C3H/3T3 cell culture morphology. The note with it: concentration that results in a microscopic alteration of the C3H/3T3 cell culture morphology. Type of series: cell-based, murine.
The subject of series [5] is Moloney murine sarcoma virus (MSV). Kind of series: MSV-induced tumor formation and death in newborn NMRI mice, intraperitoneal administration. The format is in vivo. The note with it: for Mean day of animal death: observed 20 days. The method, then: Two gram newborn NMRI mice were injected intramuscularly in the left hind leg with 50 μl of 250-fold diluted stock preparation of Moloney murine sarcoma virus. […] Another group of mice (20 animals) was administered RPMI-1640 medium as placebo. All compounds were solubilized in RPMI-1640 medium. The mice were observed daily for 20 days and the day of tumor initiation and the day of animal death was recorded for each animal. Statistical analyses were performed by calculating the standard deviation.

For series [6], the system named is retrovirus. Kind of series: Anti-retrovirus activity in vitro, conclusions on Table 1 (HIV-1, HIV-2, MSV). Type of series: cell-based.

For `CCCCNc1nc(N)nc2c1ncn2C[C@@H](C)OCP(=O)(O)O` [(R)-9-PMP-6-butyl-DAP, 9-(R)-(2-Phosphonomethoxypropyl)-2-amino-6-butylaminopurine], the “EC50 HIV-1” value in series [1] is 13.1 µg/mL (≈ 36.6 µM). The “EC50 HIV-2” value in series [2] came out at 9.8 µg/mL (≈ 27.3 µM). The “EC50 MSV” value in series [3] amounted to 3.27 µg/mL (≈ 9.13 µM).

In series [4], `Nc1nc(N)c2ncn(C[C@H](CF)OCP(=O)(O)O)c2n1` [(R)-FPMPDAP, reference compound] came in with an MIC above 100 µg/mL. The “Mean day of animal death” value in series [5] (single i.p. dose 10 mg/kg) turned out to be 12.0 ± 1.0 days; in series [5] (single i.p. dose 25 mg/kg) it was 14.1 ± 1.5 days; in series [5] (single i.p. dose 50 mg/kg), 13.9 ± 1.4 days.

`C[C@H](Cn1cnc2c(N(C)C)nc(N)nc21)OCP(=O)(O)O` [(R)-9-PMP-6-dimethyl-DAP, 9-(R)-(2-Phosphonomethoxypropyl)-2-amino-6-dimethylaminopurine]: the “EC50 HIV-1” value in series [1] was 2.3 µg/mL (≈ 6.96 µM). For the same molecule, the “EC50 HIV-2” value in series [2] was 4.2 µg/mL (≈ 12.7 µM). Moreover, the “EC50 MSV” value in series [3] amounted to 3.25 µg/mL (≈ 9.84 µM).

`C[C@H](Cn1cnc2c(=O)[nH]c(N)nc21)OCP(=O)(O)O` [(R)-PMPG, 9-(R)-(2-phosphonomethoxypropyl)guanine]: the MIC in series [4] stood at 40 µg/mL (≈ 132 µM).

Turning to `C[C@H](Cn1cnc2c(N3CCOCC3)nc(N)nc21)OCP(=O)(O)O` [(R)-9-PMP-6-morpholino-DAP, 9-(R)-(2-Phosphonomethoxypropyl)-2-amino-6-morpholinopurine], in series [1], the “EC50 HIV-1” value was above 100 µg/mL. Besides, the “EC50 HIV-2” value in series [2] is above 100 µg/mL. In series [3], the “EC50 MSV” value worked out at 6.1 µg/mL (≈ 16.4 µM).

`C[C@H](Cn1cnc2c(S)nc(N)nc21)OCP(=O)(O)O` [(R)-9-PMP-6-thioG, 9-(R)-(2-Phosphonomethoxypropyl)-2-amino-6-thiopurine]: the “EC50 HIV-1” value in series [1] was above 100 µg/mL. Also, in series [2], the “EC50 HIV-2” value was above 100 µg/mL. The “EC50 MSV” value in series [3] is 3.94 µg/mL (≈ 12.3 µM).

Regarding `Nc1ncnc2c1ncn2CCOCP(=O)(O)O` [PMEA, reference compound], the MIC in series [4] is above 100 µg/mL.

For `Nc1ncnc2c1ncn2C[C@@H](CF)OCP(=O)(O)O` [(S)-FPMPA, reference compound], in series [4], the MIC was above 100 µg/mL. The results for the “Mean day of animal death” value in series [5] (single i.p. dose 10 mg/kg), in series [5] (single i.p. dose 20 mg/kg) and in series [5] (single i.p. dose 50 mg/kg) were 13.6 ± 2.8 days, 17.2 ± 2.2 days and above 20 days, respectively. Further, the “percentage of MSV-infected mice still alive at day 20 post infection” value in series [5] (single i.p. dose 50 mg/kg) worked out at 100%.

`C[C@@H](Cn1cnc2c(=O)[nH]c(N)nc21)OCP(=O)(O)O` [(S)-PMPG, 9-(S)-(2-Phosphonomethoxypropyl)guanine] had an MIC in series [4] of 8 µg/mL (≈ 26.4 µM).

With `C[C@@H](Cn1cnc2c(N)nc(N)nc21)OCP(=O)(O)O` [(S)-PMPDAP, 9-(S)-(2-phosphonomethoxypropyl)-2,6-diaminopurine], the MIC in series [4] was above 100 µg/mL.

With `C[C@H](Cn1cnc2c(NCc3ccccc3)nc(N)nc21)OCP(=O)(O)O` [(R)-9-PMP-6-benzyl-DAP, 9-(R)-(2-Phosphonomethoxypropyl)-2-amino-6-benzylaminopurine], the “EC50 HIV-1” value in series [1] amounted to 10.3 µg/mL (≈ 26.3 µM). Besides, in series [2], the “EC50 HIV-2” value is 8 µg/mL (≈ 20.4 µM). Besides, in series [3], the “EC50 MSV” value was 0.3 µg/mL (≈ 0.765 µM).

Regarding `C[C@H](Cn1cnc2c(NC3CCCCC3)nc(N)nc21)OCP(=O)(O)O` [(R)-9-PMP-6-cyclohexyl-DAP, 9-(R)-(2-Phosphonomethoxypropyl)-2-amino-6-cyclohexylaminopurine], the “EC50 HIV-1” value in series [1] turned out to be 8.0 µg/mL (≈ 20.8 µM). The “EC50 HIV-2” value in series [2] was determined as 7 µg/mL (≈ 18.2 µM).

As for `C[C@H](Cn1nnc2c(N)ncnc21)OCP(=O)(O)O` [(R)-9-PMP-8-azaA, 9-(R)-(2-Phosphonomethoxypropyl)-8-azaadenine], the “EC50 HIV-1” value in series [1] was 2.42 µg/mL (≈ 8.4 µM). In addition, the “EC50 HIV-2” value in series [2] was found to be 1.75 µg/mL (≈ 6.07 µM). In addition, the “EC50 MSV” value in series [3] turned out to be 0.43 µg/mL (≈ 1.49 µM).

As to `C[C@H](Cn1cnc2c(N3CCCCC3)nc(N)nc21)OCP(=O)(O)O` [(R)-9-PMP-6-piperidino-DAP, 9-(R)-(2-Phosphonomethoxypropyl)-2-amino-6-piperidinopurine], the “EC50 HIV-1” value in series [1] is above 100 µg/mL. Besides, in series [2], the “EC50 HIV-2” value was above 100 µg/mL. In addition, the “EC50 MSV” value in series [3] worked out at 12.6 µg/mL (≈ 34 µM).

For the molecule `CCC(C)Nc1nc(N)nc2c1ncn2C[C@@H](C)OCP(=O)(O)O` (stereo partly drawn) [(R)-9-PMP-6-(2-butyl)-DAP, 9-(R)-(2-Phosphonomethoxypropyl)-2-amino-6-(2-butyl)aminopurine], the “EC50 HIV-1” value in series [1] came to 30 ± 19 µg/mL (≈ 83.7 µM). Moreover, the “EC50 HIV-2” value in series [2] was determined as 25 ± 15 µg/mL (≈ 69.8 µM). The “EC50 MSV” value in series [3] amounted to 3.5 µg/mL (≈ 9.77 µM).

In series [4], `C[C@@H](Cn1cnc2c(N)ncnc21)OCP(=O)(O)O` [(S)-PMPA, 9-(S)-(2-Phosphonomethoxypropyl)adenine] had an MIC above 100 µg/mL. In addition, in series [5] (i.p. dose of 50 mg/kg), the “antiretroviral activity in vivo (in words)” value is recorded as “no marked antiretroviral activity”. Also, the “Mean day of animal death” value in series [5] (single i.p. dose 10 mg/kg) came out at 10.9 ± 0.88 days; in series [5] (single i.p. dose 20 mg/kg) it was 10.9 ± 0.88 days; in series [5] (single i.p. dose 50 mg/kg) it was 12.4 ± 0.84 days. In addition, the “antiretroviral activity in vitro (in words)” value in series [6] was “devoid of marked antiretroviral activity”.

The molecule `Nc1ncnc2c1ncn2C[C@H](CF)OCP(=O)(O)O` [(R)-FPMPA, reference compound] showed an MIC in series [4] above 100 µg/mL. For the same molecule, the figures for the “Mean day of animal death” value in series [5] (single i.p. dose 20 mg/kg) and in series [5] (single i.p. dose 50 mg/kg) were 10.4 ± 0.52 days and 11.2 ± 0.92 days, respectively.

Take `C[C@H](Cn1cnc2c(S)ncnc21)OCP(=O)(O)O` [(R)-9-PMP-6-thioPu, 9-(R)-(2-Phosphonomethoxypropyl)-6-mercaptopurine]: in series [1], the “EC50 HIV-1” value was above 100 µg/mL. In series [2], the “EC50 HIV-2” value is above 100 µg/mL. Besides, the “EC50 MSV” value in series [3] is 18 µg/mL (≈ 59.2 µM).

In series [4], `Nc1nc(N)c2ncn(C[C@@H](CF)OCP(=O)(O)O)c2n1` [(S)-FPMPDAP, reference compound] came in with an MIC above 100 µg/mL. Besides, the “Mean day of animal death” value in series [5] (single i.p. dose 10 mg/kg) was found to be 16.7 ± 3.2 days; in series [5] (single i.p. dose 25 mg/kg), 14.6 ± 2.2 days; in series [5] (single i.p. dose 50 mg/kg), 16.5 ± 0.71 days.
